Columns and labels:
[1] = Particle size and polydispersity index of nanoparticle compositions (Zetasizer Nano ZS); format: physicochemical; conditions: for PDI: nanoparticle composition 50:10:38.5:1.5 mol % (Table 1A)
Source text: Nanoparticle compositions may be characterized by a variety of methods. For example, microscopy (e.g., transmission electron microscopy or scanning electron microscopy) may be used to examine the morphology and size distribution of a nanoparticle composition. Dynamic light scattering or potentiometry (e.g., potentiometric titrations) may be used to measure zeta potentials. Dynamic light scattering may also be utilized to determine particle sizes. Instruments such as the Zetasizer Nano ZS (Malvern Instruments Ltd, Malvern, Worcestershire, UK) may also be used to measure multiple characteristics of a nanoparticle composition, such as particle size, polydispersity index, and zeta potential.
A Zetasizer Nano ZS (Malvern Instruments Ltd, Malvern, Worcestershire, UK) can be used to determine the particle size, the polydispersity index (PDI) and the zeta potential of the nanoparticle compositions in 1×PBS in determining particle size and 15 mM PBS in determining zeta potential.
(§1) Initial studies were performed to compare the delivery efficiency of nanoparticle compositions including various compounds according to Formula (I), (IA), (II), (IIa), (IIb), (IIc), (IId) or (IIe). The cationic lipid MC3 is a current standard in the art. Accordingly, the standard MC3 formulation including about 50 mol % MC3, about 10 mol % DSPC, about 38.5 mol % cholesterol, and about 1.5 mol % PEG-DMG was used as a basis for this study. Nanoparticle compositions including DSPC as a phospholipid, cholesterol as a structural lipid, PEG-DMG as a PEG lipid, an RNA, and a compound according to Formula (I), (IA), (II), (IIa), (IIb), (IIc), (IId) or (IIe) selected from Compounds 1-159, 168-170, and 173-175 were prepared according to or via methods similar to those described in Examples 1 and 2. The ratios of the lipids were 50:10:38.5:1.5 mol % for the lipid according to Formula (I), (IA), (II), (IIa), (IIb), (IIc), (IId) or (IIe):DSPC:cholesterol:PEG-DMG. The RNA used was an mRNA encoding G5 luciferase (Luc) or G5 hEPO. Tables 1A-1B summarize the content and characteristics of the formulations. […]

[2] = system: mice; test: Luc expression (total flux) after intramuscular administration; format: in vivo; conditions: i.m., Luc, 6 h
[3] = Encapsulation of RNA by the nanoparticle composition (QUANT-IT RIBOGREEN RNA assay); format: physicochemical
Source text: The efficiency of encapsulation of a therapeutic and/or prophylactic describes the amount of therapeutic and/or prophylactic that is encapsulated or otherwise associated with a nanoparticle composition after preparation, relative to the initial amount provided. The encapsulation efficiency is desirably high (e.g., close to 100%). The encapsulation efficiency may be measured, for example, by comparing the amount of therapeutic and/or prophylactic in a solution containing the nanoparticle composition before and after breaking up the nanoparticle composition with one or more organic solvents or detergents. Fluorescence may be used to measure the amount of free therapeutic and/or prophylactic (e.g., RNA) in a solution. For the nanoparticle compositions described herein, the encapsulation efficiency of a therapeutic and/or prophylactic may be at least 50%, for example 50%, 55%, 60%, 65%, 70%, 75%, 80%, 85%, 90%, 91%, 92%, 93%, 94%, 95%, 96%, 97%, 98%, 99%, or 100%. In some embodiments, the encapsulation efficiency may be at least 80%. In certain embodiments, the encapsulation efficiency may be at least 90%.
For nanoparticle compositions including an RNA, a QUANT-IT™ RIBOGREEN® RNA assay (Invitrogen Corporation Carlsbad, CA) can be used to evaluate the encapsulation of an RNA by the nanoparticle composition. The samples are diluted to a concentration of approximately […] in a TE buffer solution (10 mM Tris-HCl, 1 mM EDTA, pH 7.5). 50 μL of the diluted samples are transferred to a polystyrene 96 well plate and either 50 μL of TE buffer or 50 μL of a 2% Triton X-100 solution is added to the wells. The plate is incubated at a temperature of 37° C. for 15 minutes. The RIBOGREEN® reagent is diluted 1:100 in TE buffer, and 100 μL of this solution is added to each well. The fluorescence intensity can be measured using a fluorescence plate reader (Wallac Victor 1420 Multilablel Counter; Perkin Elmer, Waltham, MA) at an excitation wavelength of, for example, about 480 nm and an emission wavelength of, for example, about 520 nm. The fluorescence values of the reagent blank are subtracted from that of each of the samples and the percentage of free RNA is determined by dividing the fluorescence intensity of the intact sample (without addition of Triton X-100) by the fluorescence value of the disrupted sample (caused by the addition of Triton X-100).
as §1

[4] = system: mice; test: Cytokine induction (IL-6, IP-10) in mice after intravenous administration; format: in vivo; design: IL-6 / IP-10: unit not given here; conditions: 0.5 mpk; for IL-6 / IP-10: 6 hours
Source text: The introduction of foreign material into a mammalian body induces an innate immune response that promotes cytokine production. Such immune responses to, for example, nanoparticle compositions including therapeutic and/or prophylactics, are undesirable. The induction of certain cytokines is thus measured to evaluate the […] of nanoparticle compositions. The concentrations of various cytokines in mice upon intravenous administration of nanoparticle compositions presented in Table 1A at a dosage of 0.5 mpk was measured at 6 hours. The standard MC3 formulation and a PBS control were also tested. As is evident in Table 7, IL-6 induction was highest for compositions including Compounds 1, 3, 9, 19, and 26, while IP-10 induction was highest for compositions including Compounds 3, 4, 7, 20, and 26. IL-6 induction was lowest for compositions including Compounds 4, 11, 12, and 28. IP-10 induction was lowest for compositions including Compounds 10, 11, 12, 13, 15, 17, and 18.
(§2) The expression of hEPO and cytokine induction in mice intravenously administered a nanoparticle composition at a dose of 0.5 mpk were measured at 3, 6, and 24 hours. […] The expression of hEPO in mice intramuscularly administered a nanoparticle composition from Table 1B at a dose of 0.01 mpk were measured at 3, 6, and 24 hours. […] (see also FIG. 9.)

[5] = system: mice; test: hEPO expression in mice after intravenous administration; format: in vivo
Method: Sample formulations of nanoparticle compositions including different lipids are generally first evaluated according to Luc expression in vivo. The activity of several such compositions was further evaluated using an mRNA encoding hEPO. Nanoparticle compositions including Compounds 6, 18, 25, 30, 108-112, 60, and 122, or MC3 were prepared according to Example 2.
as §2
Table 12 compares the nanoparticle compositions including compounds according to Formula (I), (IA), (II), (IIa), (IIb), (IIc), (IId) or (IIe) to the compositions including MC3 on the basis of expression and flux levels. […] Thus, these lipids may be useful in nanoparticle composition therapeutics. […]

[6] = system: mice; test: Luc expression (bioluminescence, total flux) after intravenous administration to mice; format: in vivo; conditions: Luc total flux (Table 3D)
Method: In order to monitor how effectively various nanoparticle compositions deliver therapeutic and/or prophylactics to targeted cells, different nanoparticle compositions including a particular therapeutic and/or prophylactic (for example, a modified or naturally occurring RNA such as an mRNA) are prepared and administered to rodent populations. Mice are intravenously, intramuscularly, intraarterially, or intratumorally administered a single dose including a nanoparticle composition with a formulation such as those provided in Example 3. In some instances, mice may be made to inhale doses. Dose sizes may range from 0.001 mg/kg to 10 mg/kg, where 10 mg/kg describes a dose including 10 mg of a therapeutic and/or prophylactic in a nanoparticle composition for each 1 kg of body mass of the mouse. A control composition including PBS may also be employed.
Upon administration of nanoparticle compositions to mice, dose delivery profiles, dose responses, and toxicity of particular formulations and doses thereof can be measured by enzyme-linked immunosorbent assays (ELISA), bioluminescent imaging, or other methods. For nanoparticle compositions including mRNA, time courses of protein expression can also be evaluated. Samples collected from the rodents for evaluation may include blood, sera, and tissue (for example, muscle tissue from the site of an intramuscular injection and internal tissue); sample collection may involve sacrifice of the animals.
The efficacy of the nanoparticle compositions presented in Table 1A was evaluated with a bioluminescence study. Formulations were administered intravenously to mice (n=6) at a dosage of 0.5 mg/kg (mpk) and bioluminescence measured at 3, 6, and 24 hour time points. The standard MC3 formulation and, in some instances, a control (e.g., a PBS control) were evaluated for comparison. […] In general, flux decreased as time progressed to less than 10% of the initial flux.
The total flux (measured by area under the curve, AUC) induced by administration of a formulation including a given lipid relative to that induced by administration of a formulation including MC3 was also measured for several lipids.
The tolerability and efficacy of nanoparticle compositions to non-human primates was also investigated using sample formulations including Compounds 18, 25, 26, and 48 and MC3 to determine if these compounds are differentiated in terms of protein expression. The formulations were prepared according to the standard MC3 formulation described above and included an hEPO mRNA. Table 30 includes details of the compositions tested, while Table 31 summarizes the relative expression of Luc and hEPO mRNA in mice and rats. Expression was measured 6 hours after administration.

[7] = nanoparticle composition lipid:DSPC:cholesterol:PEG-DMG 50:10:38.5:1.5 mol %, mRNA encoding Luc or hEPO (Table 1A)
[8] = nanoparticle composition 50:10:38.5:1.5 mol % (Table 1A)

SMILES | PDI [1] | Size (nm) [1, 7] [nm] | i.m. Lipid/MC3 0.01 mpk, Luc, 6h [2] | EE (%) [3, 8] [%] | other results
CCCCCCCCCOC(=O)CCCCCCCN(CCCCCCCC(=O)OC(CCCCCCCC)CCCCCCCC)CCCN/C(=C/[N+](=O)[O-])NC [Compound 170, Heptadecan-9-yl (E)-8-((3-((1-(methylamino)-2-nitrovinyl)amino)propyl)(8-(nonyloxy)-8-oxooctyl)amino)octanoate] | 0.12 | 71.7 | 5.3 |  | 
CCCCCCCCCOC(=O)CCCCCCCN(CCCCCCCC(=O)OC(CCCCCCCC)CCCCCCCC)CCCN/C(=N/C#N)N(C)C [Compound 168, Heptadecan-9-yl (Z)-8-((3-(2-cyano-3,3-dimethylguanidino)propyl)(8-(nonyloxy)-8-oxooctyl)amino)octanoate] | 0.1 | 80.7 |  | 94.35 | 
CCCCCCCCC(CCCCCCCC)OC(=O)CCCCCCCN(CCO)CCCC(=O)OC(CCCCC)CCCCCCCC (stereo not drawn) [Compound 71, Heptadecan-9-yl 8-((2-hydroxyethyl)(4-oxo-4-(tetradecan-6-yloxy)butyl)amino)octanoate] | 0.11 | 60.1 |  | 96.1 | 
CCCCC/C=C\C/C=C\CCCCCCCCN(CCO)CCCCCCCC(=O)OC(CCCCCCCC)CCCCCCCC [Compound 6, Heptadecan-9-yl 8-((2-hydroxyethyl)((9Z,12Z)-octadeca-9,12-dien-1-yl)amino)octanoate] |  |  |  |  | Size (nm) ([1]; hEPO mRNA, lipid:DSPC:Chol:PEG-DMG (50:10:38.5:1.5) (Table 10)): 70.5 nm; EE (%) ([3]; hEPO mRNA, (50:10:38.5:1.5) (Table 10)): 97.84%; IL-6 [4]: 136.18; IP-10 [4]: 316.01; Cytokine expression (pg/ml) IL-6 (6 h) ([4]; hEPO mRNA, 6 h): 10.15 pg/mL; Cytokine expression (pg/ml) IP-10 (6 h) ([4]; hEPO mRNA, 6 h): 116.66 pg/mL; hEPO concentrations compared with MC3 formulations at each time point ([5]; 0.5 mpk, 3, 6 and 24 hours): higher hEPO concentrations than MC3 formulations; hEPO expression (pg/ml) 3h ([5]; 0.5 mpk, 3 h): 2.31e+06 pg/mL; hEPO expression (pg/ml) 6 h ([5]; 0.5 mpk, 6 h): 3.17e+06 pg/mL; hEPO expression (pg/ml) 24 h ([5]; 0.5 mpk, 24 h): 1.11e+06 pg/mL
CCCCCCCCCOC(=O)CCCCCCCN(CCO)CCCCCCC(=O)OCC(CCCCCCCC)CCCCCCCC [Compound 143, Nonyl 8-((2-hydroxyethyl)(7-((2-octyldecyl)oxy)-7-oxoheptyl)amino)octanoate] | 0.19 | 93.3 |  | 96.4 | IL-6 [4]: 6.245; IP-10 [4]: 209.63
CCCCCCCCCOC(=O)CCCCCCCN(CCCCCCCC(=O)OC(CCCCCCCC)CCCCCCCC)CCCNS(C)(=O)=O [Compound 109, Heptadecan-9-yl 8-((3-(methylsulfonamido)propyl)(8-(nonyloxy)-8-oxooctyl)amino)octanoate] |  |  | 3.6 |  | 
CCCCCCCCCOC(=O)CCCCCCCN(CCCCCCCC(=O)OC(CCCCCCCC)CCCCCCCC)C(C)CO (stereo not drawn) [Compound 157, Heptadecan-9-yl 8-((1-hydroxypropan-2-yl)(8-(nonyloxy)-8-oxooctyl)amino)octanoate] | 0.096 | 69.6 |  | 96.43 | AUC (p/s*h) [6]: 2.481E+011 p/s*h
CCCCCCCCCOC(=O)CCCCCCCN(CCCCCCCC(=O)OC(CCCCCCCC)CCCCCCCC)CCCN(C)S(C)(=O)=O [Compound 173, Heptadecan-9-yl 8-((3-(N-methylmethylsulfonamido)propyl)(8-(nonyloxy)-8-oxooctyl)amino)octanoate] |  |  | 0.6 |  | 
